Results reported in US20260345619A1 (Principia Biopharma Inc., priority 2023, published 2026).

Test: Asthma Quality of Life Questionnaire with Standardized Activities (AQLQ(S))
Type: in vivo, human
Details: mITT
Source text: The AQLQ(S) is a self-administered patient reported outcome to measure the functional impairments that are most troublesome to adolescents and adults ≥12 years of age as a result of their asthma.
Asthma Quality of Life Questionnaire with Standardized Activities (AQLQ(S)) self-administered (≥12 years)
The AQLQ(S) was designed as a self-administered patient reported outcome to measure the functional impairments that are most troublesome to adolescents and adults ≥12 years of age as a result of their asthma. The instrument is comprised of 32 items, each rated on a 7-point Likert scales from 1 to 7. The AQLQ(S) has 4 domains. The domains and the number of items in each domain are as follows: • Symptoms (12 items) • Activity limitation (11 items) • Emotional function (5 items) • Environmental stimuli (4 items)
A global score is calculated ranging from 1 to 7 and a score by domain. Higher scores indicate better quality of life. […] Patients were to complete the questionnaire in an electronic diary during on-site visits.
Secondary endpoints included pre-bronchodilator FEV1 change from baseline at EOT, ACQ-5 score change from baseline, and AQLQ score change from baseline. Other secondary and exploratory endpoints are described in Table 2.

CC(C)(C=C(C#N)C(=O)N1CCC[C@@H](n2nc(-c3ccc(Oc4ccccc4)cc3F)c3c(N)ncnc32)C1)N1CCN(C2COC2)CC1 (mixture of isomers) [rilzabrutinib, (R)-2-[3-[4-amino-3-(2-fluoro-4-phenoxy-phenyl)pyrazolo[3,4-d]pyrimidin-1-yl]piperidine-1-carbonyl]-4-methyl-4-[4-(oxetan-3-yl)piperazin-1-yl]pent-2-enenitrile]
AQLQ(S) Global score, Mean (Week 8, 400 mg TID): 5.27
AQLQ(S) Global score, Median (Week 8, 400 mg TID): 5.06
AQLQ(S) Global score, change from baseline, LS Mean (Week 8, 400 mg TID): 0.42
AQLQ(S) Global score, change from baseline, Mean (Week 8, 400 mg TID): 0.29
AQLQ(S) Global score, change from baseline, Median (Week 8, 400 mg TID): 0.34
AQLQ(S) Symptoms score, Mean (Week 8, 400 mg TID): 5.29
AQLQ(S) Symptoms score, Median (Week 8, 400 mg TID): 5.17
AQLQ(S) Symptoms score, change from baseline, LS Mean (Week 8, 400 mg TID): 0.44
AQLQ(S) Symptoms score, change from baseline, Mean (Week 8, 400 mg TID): 0.29
AQLQ(S) Symptoms score, change from baseline, Median (Week 8, 400 mg TID): 0.38
AQLQ(S) Symptoms score, change from baseline, LS Mean Diff vs. placebo (Week 8, 400 mg TID, 95% CI −0.16, 0.43): 0.13
AQLQ(S) Global score, change from baseline, LS Mean Diff vs. placebo (Week 8, 400 mg TID, 95% CI −0.18, 0.37): 0.10
AQLQ(S) Activity limitation score, change from baseline, LS Mean Diff vs. placebo (Week 8, 400 mg TID, 95% CI −0.18, 0.38): 0.10
AQLQ(S) Emotional function score, change from baseline, LS Mean Diff vs. placebo (Week 8, 400 mg TID, 95% CI −0.20, 0.45): 0.13
AQLQ(S) Environmental stimuli score, change from baseline, LS Mean Diff vs. placebo (Week 8, 400 mg TID, 95% CI −0.34, 0.47): 0.06
AQLQ(S) Activity limitation score, Mean (Week 12, 400 mg BID): 5.66
AQLQ(S) Activity limitation score, Median (Week 12, 400 mg BID): 5.82
AQLQ(S) Activity limitation score, change from baseline, LS Mean (Week 12, 400 mg BID): 0.77
AQLQ(S) Activity limitation score, change from baseline, Mean (Week 12, 400 mg BID): 0.85
AQLQ(S) Activity limitation score, change from baseline, Median (Week 12, 400 mg BID): 0.45
AQLQ(S) Emotional function score, Mean (Week 12, 400 mg BID): 5.96
AQLQ(S) Emotional function score, Median (Week 12, 400 mg BID): 6.20
AQLQ(S) Emotional function score, change from baseline, LS Mean (Week 12, 400 mg BID): 0.97
AQLQ(S) Emotional function score, change from baseline, Mean (Week 12, 400 mg BID): 0.72
AQLQ(S) Emotional function score, change from baseline, Median (Week 12, 400 mg BID): 0.40
AQLQ(S) Environmental stimuli score, Mean (Week 12, 400 mg BID): 5.34
AQLQ(S) Environmental stimuli score, change from baseline, LS Mean (Week 12, 400 mg BID): 0.70
AQLQ(S) Environmental stimuli score, change from baseline, Mean (Week 12, 400 mg BID): 0.87
AQLQ(S) Environmental stimuli score, change from baseline, Median (Week 12, 400 mg BID): 0.50
AQLQ(S) Global score, Mean (Week 12, 400 mg BID): 5.75
AQLQ(S) Global score, Median (Week 12, 400 mg BID): 5.72
AQLQ(S) Global score, change from baseline, LS Mean (Week 12, 400 mg BID): 0.82
AQLQ(S) Global score, change from baseline, Mean (Week 12, 400 mg BID): 0.84
AQLQ(S) Global score, change from baseline, Median (Week 12, 400 mg BID): 0.69
AQLQ(S) Symptoms score, Mean (Week 12, 400 mg BID): 5.87
AQLQ(S) Symptoms score, Median (Week 12, 400 mg BID): 5.92
AQLQ(S) Symptoms score, change from baseline, LS Mean (Week 12, 400 mg BID): 0.84
AQLQ(S) Symptoms score, change from baseline, Mean (Week 12, 400 mg BID): 0.87
AQLQ(S) Symptoms score, change from baseline, Median (Week 12, 400 mg BID): 0.83
AQLQ(S) Environmental stimuli score, change from baseline, LS Mean Diff vs. placebo (Week 12, 400 mg BID, 95% CI 0.06, 1.49): 0.78
AQLQ(S) Emotional function score, change from baseline, LS Mean Diff vs. placebo (Week 12, 400 mg BID, 95% CI 0.12, 1.36): 0.74
AQLQ(S) Symptoms score, change from baseline, LS Mean Diff vs. placebo (Week 12, 400 mg BID, 95% CI 0.22, 1.11): 0.67
AQLQ(S) Global score, change from baseline, LS Mean Diff vs. placebo (Week 12, 400 mg BID, 95% CI 0.25, 1.18): 0.72
AQLQ(S) Activity limitation score, change from baseline, LS Mean Diff vs. placebo (Week 12, 400 mg BID, 95% CI 0.28, 1.28): 0.78
AQLQ(S) Activity limitation score, Mean (Week 12, 400 mg TID): 5.45
AQLQ(S) Activity limitation score, Median (Week 12, 400 mg TID): 5.36
AQLQ(S) Activity limitation score, change from baseline, LS Mean (Week 12, 400 mg TID): 0.62
AQLQ(S) Activity limitation score, change from baseline, Mean (Week 12, 400 mg TID): 0.50
AQLQ(S) Activity limitation score, change from baseline, Median (Week 12, 400 mg TID): 0.55
AQLQ(S) Emotional function score, Mean (Week 12, 400 mg TID): 5.57
AQLQ(S) Emotional function score, Median (Week 12, 400 mg TID): 5.60
AQLQ(S) Emotional function score, change from baseline, LS Mean (Week 12, 400 mg TID): 0.53
AQLQ(S) Emotional function score, change from baseline, Mean (Week 12, 400 mg TID): 0.43
AQLQ(S) Emotional function score, change from baseline, Median (Week 12, 400 mg TID): 0.40
AQLQ(S) Environmental stimuli score, Mean (Week 12, 400 mg TID): 5.08
AQLQ(S) Environmental stimuli score, change from baseline, LS Mean (Week 12, 400 mg TID): 0.54
AQLQ(S) Environmental stimuli score, change from baseline, Mean (Week 12, 400 mg TID): 0.46
AQLQ(S) Environmental stimuli score, change from baseline, Median (Week 12, 400 mg TID): 0.50
AQLQ(S) Global score, Mean (Week 12, 400 mg TID): 5.41
AQLQ(S) Global score, Median (Week 12, 400 mg TID): 5.23
AQLQ(S) Global score, change from baseline, LS Mean (Week 12, 400 mg TID): 0.57
AQLQ(S) Global score, change from baseline, Mean (Week 12, 400 mg TID): 0.46
AQLQ(S) Global score, change from baseline, Median (Week 12, 400 mg TID): 0.53
AQLQ(S) Symptoms score, Mean (Week 12, 400 mg TID): 5.41
AQLQ(S) Symptoms score, Median (Week 12, 400 mg TID): 5.25
AQLQ(S) Symptoms score, change from baseline, LS Mean (Week 12, 400 mg TID): 0.59
AQLQ(S) Symptoms score, change from baseline, Mean (Week 12, 400 mg TID): 0.44
AQLQ(S) Symptoms score, change from baseline, Median (Week 12, 400 mg TID): 0.58
AQLQ(S) Activity limitation score, change from baseline, LS Mean Diff vs. placebo (Week 12, 400 mg TID, 95% CI 0.02, 0.60): 0.31
AQLQ(S) Global score, change from baseline, LS Mean Diff vs. placebo (Week 12, 400 mg TID, 95% CI −0.01, 0.60): 0.29
AQLQ(S) Symptoms score, change from baseline, LS Mean Diff vs. placebo (Week 12, 400 mg TID, 95% CI −0.01, 0.68): 0.34
AQLQ(S) Emotional function score, change from baseline, LS Mean Diff vs. placebo (Week 12, 400 mg TID, 95% CI −0.08, 0.72): 0.32
AQLQ(S) Environmental stimuli score, change from baseline, LS Mean Diff vs. placebo (Week 12, 400 mg TID, 95% CI −0.23, 0.57): 0.17
